We go through eight molecules from patent US10501511B2, “Low molecular polypeptide for preventing and treating inflammation and use thereof” (SHANGHAI FIRST PEOPLE'S HOSPITAL, priority 2013, dated 2019).

Data set [1] has as its system Rat Endotoxin-induced Uveitis (EIU) model. The experiment in a line: Clinical manifestation score in rat endotoxin-induced uveitis (EIU) model. It is filed as in vivo, Wistar rats. To be noted: 10 μl into vitreous chamber, 24 hours, score 0-4. As to the method:
(§1) 1.1 Experiment animals and materials: healthy male Wistar rats, 140-180 g, 8-10 weeks old, were purchased from Animal Center of Chinese Academy of Medical Sciences; Lipopolysaccharides (LPS), derived from Escherichia coli, was purchased from SIGMA-Aldrich Corporation (U.S.A).
(§2) 1.2 Model establishment and Intervention test: Wistar rats were randomly divided into six groups (9-15 rats for each group) which were LPS group, LPS+1 μg/μl H-RN intervention group, LPS+5 μg/μl H-RN group, LPS+10 μg/μl H-RN group, LPS+10 μg/μl DXM and normal control group (PBS) respectively. 200 μg LPS (2 mg/ml, 100 μl, dissolved in sterile saline) was subcutaneously injected into right foot pad of rats, thereby establishing EIU model. The normal control group was subcutaneously injected with 100 μl sterile saline into the right foot pad of rats. In LPS group, LPS+H-RN (1, 5, 10 μg/μl) intervention group and LPS+10 μg/μl DXM group, each rat was subcutaneously injected with 200 μg LPS into the right foot pad, meanwhile, PBS 10 μl, H-RN PBS solution (1, 5 and 10 μg/μl) 10 μl and DXM PBS solution (10 μg/μl) 10 μl were injected into vitreous chamber respectively.
1.3 Qualitative observation for Clinical manifestations of EIU rats: 24 hours after drug and LPS intervention, rats were observed by biological microscope. The clinical manifestations of rats were evaluated and scored by an independent observer according to the method of Behar-Cohen et al. The severity of EIU was represented by 0-4 scores: 0: no inflammation; 1: mild dilation in conjunctiva and iris vessel; 2: moderate dilation in conjunctiva and iris vessel with anterior chamber flare; 3: severe iris hyperemia with severe anterior chamber flare; 4: anterior chamber cellulose-like exudation, posterior synechia, miosis and hypopyon in addition to 3 points.
(§3) The experiment data was shown as x±s. A one-way ANOVA was used to compare the change of inflammatory cell infiltration of rats in each group. P<0.05 represents statistical significance.

Data set [2] shares this test system. The experiment in a line: Count of inflammatory cell infiltration in aqueous humor of EIU rats. It is filed as in vivo, Wistar rats. To be noted: 24 hours, LPS group 164.20±142.7. Here is the method: as §1, §2
1.4 Quantitative count for inflammatory cell infiltration in rat aqueous humor: 24 hours after LPS and drug intervention, rats were sacrificed in excess of anesthesia. Under an operating microscope, aqueous humor (30-40 μl/binoculus) was collected by anterior chamber paracentesis with a 30-gauge microsyringe at 1 mm from rat corneal limbus. Aqueous humor samples were diluted with an equal amount of trypan blue dye liquid. Cells in aqueous humor were counted using a hemocytometer under light microscopy by two independent technicians for each region (equivalent with 0.1 μl). The average of the four regions was the number of cells contained in 1 μl aqueous humor.
as §3

For data set [3], the system named is TNF-α in LPS-induced RAW264.7 cells. The experiment in a line: TNF-α concentration (ELISA) in supernatant of LPS-induced RAW264.7 cells. To be noted: for concentration of TNF-α in cell supernatant: LPS group 1333.00±476.59, control 561.00±25.65; for TNF-α: Samples 10 μM, Control (LPS) 1425.60. The data set is classed as cell-based, murine. Here is the method: (§4) 1.1 Experimental cell strain and Materials: murine peritoneal macrophage cell strain RAW264.7 were purchased from the Cell Bank of Shanghai Institutes for Biological Sciences, CAS; DMEM high glucose medium was purchased from GIBCO; mouse tumor necrosis factor-α (TNF-α) and interleukin-6 (IL-6) enzyme-linked immunosorbent assay (ELISA) kits were purchased from R & D company, US.
(§5) 1.2 Model establishment and Intervention test: RAW264.7 cells were cultured in high glucose DMEM medium containing 10% fetal bovine serum (FBS), and 100 U/ml double antibiotics of penicillin and streptomycin, and placed in 37° C., 5% CO2 incubator for amplification. Cells at Logarithmic growth phase were seeded in 24-well plates at 2.5×10^5/ml. When adhered cells grew well and were cultured to 80-90% of confluence, the medium was replaced by a DMEM medium without 10% FBS for serum-starved culture for 24 hours. RAW264.7 cells were randomly divided into control group, LPS group, LPS+H-RN group with sextuplicate wells for each group. LPS group and LPS+H-RN group were added with 500 μl of different concentrations of H-RN (1, 10, 100 μM) and LPS (100 ng/ml) and the control group was added with an equal volume of DMEM medium, each group was placed in 37° C., 5% CO2 incubator and routinely cultured. Cell supernatants were collected after 24 hours.
(§6) The experiment data was shown as x±s. SPSS 11.0 statistical package was used for statistic analysis and one-way ANOVA was used to compare TNF-α and IL-6 level in supernatant between the groups, and P<0.05 represents statistical significance.
For orientation: ELISA stands for enzyme-linked immunosorbent assay.

Data set [4] has as its system IL-6 in LPS-induced RAW264.7 cells. The data set is described as follows: IL-6 concentration (ELISA) in supernatant of LPS-induced RAW264.7 cells. The data set is classed as cell-based, murine. The settings on record: for concentration of IL-6 in cell supernatant: LPS group 2650.00±106.07, control 213.00±15.56; for IL-6: Samples 10 μM, Control (LPS) 2713.95. As to the method: as §4, §5, §6

Data set [5] is described as follows: Cytotoxicity assay (MTS colorimetric method), relative growth rate. The settings on record: mouse, RAW264.7 macrophage cells, 24 hours, MTS, blank 100.05±3.95%, read-out: relative growth rate (RGR) of cells. The data set is classed as cell-based, murine. As to the method:
(§7) 1.1 Experimental cell strain and Materials: murine peritoneal macrophage cell line RAW264.7 were purchased from the Cell Bank of Shanghai Institutes for Biological Sciences, CAS; DMEM high glucose medium were purchased from GIBCO; MTS were purchased from Promega, prepared into 300 mmol/L in PBS (pH 6.0) and stored at −20° C. in darkness.
(§8) 1.2 Model establishment and Intervention test: RAW264.7 cells were cultured in high glucose DMEM medium containing 10% fetal bovine serum (FBS), and 100 U/ml double antibiotics of penicillin and streptomycin, and placed in 37° C., 5% CO2 incubator for amplification. Cells at logarithmic growth phase were seeded in 96-well plates at 1×10^5/ml. When adhered cells grew well and were cultured to 80-90% of confluence, the medium was replaced by a DMEM medium without 10% FBS for serum-starved culture for 24 hours.
(§9) 1.3 Cytotoxicity assay (MTS colorimetric method): After the cells were cultured for 24 hours in serum starvation, different concentrations of H-RN (0.1, 1, 10 μM, 100 μM, 1 mM, 100 μl) were added into each well with sextuplicate wells for each concentration. The blank control group was added with an equal volume of DMEM medium. The plates were placed in 37° C., 5% CO2 incubator and cultured for 24 hours, added with 20 μl of MTS solution to each well and cultured for another 4 hours. The absorbance of each well was measured by an enzyme-linked immunosorbent detector in 490 nm, and the relative growth rate (RGR) of cells was calculated. Formula: RGR=A value of experimental group/A value of control group×100%.
(§10) 1.5. Statistic analysis: The experiment data was shown as x±s. SPSS 11.0 statistical package was used for statistic analysis and one-way ANOVA was used to compare RGR of cells between the groups, and P<0.05 represents statistical significance.

The next data set has as its system RAW264.7 cells. Described as above. The settings on record: concentration range of 0.1 μm-1 mM. It is filed as cell-based, murine. As to the method: as §7, §8, §9, §10
Data set [6] can be described thus: Water solubility of synthesized polypeptide powder. The data set is classed as physicochemical. To be noted: white powder.
The mark [7] stands for this setting: LPS + 10 μg/μl peptide, LPS group 3.56±0.51.
The mark [8] stands for this setting: LPS + 10 μg/μl peptide intravitreal.
Where [9] appears, read: 1 μM peptide + LPS 100 ng/ml, 24 hours, P>0.05.
The mark [10] stands for this setting: 10 μM peptide + LPS 100 ng/ml, 24 hours.
Where [11] appears, read: 100 μM peptide + LPS 100 ng/ml, 24 hours.

Where a SMILES comes first, the peptide text is derived from it.

With `N=C(N)NCCC[C@H](NC(=O)[C@@H]1CCCN1C(=O)[C@H](CC(N)=O)NC(=O)[C@@H](N)CCCNC(=N)N)C(=O)NCC(=O)N[C@@H](CCC(=O)O)C(=O)N[C@@H](CCC(=O)O)C(=O)NCC(=O)NCC(=O)N1CCC[C@H]1C(=O)N[C@@H](Cc1c[nH]c2ccccc12)C(=O)O` [H-RN, RNPRGEEGGPW] (H-RNPRGEEGGPW-OH; N-terminus assumed), the EIU clinical score in data set [1] (LPS + 1 μg/μl H-RN, LPS group 3.56±0.51, normal control 0.50±0.54) is recorded as 2.42±0.53; in data set [1] (LPS + 5 μg/μl peptide, LPS group 3.56±0.51) it was 2.12±0.64; in data set [1] (setting [7]), 1.92±0.27. Moreover, the “count of inflammatory cells in aqueous humor” value in data set [2] (LPS + 1 μg/μl peptide intravitreal) is 49.14±40.84 ×10^5 cells/ml; in data set [2] (LPS + 5 μg/μl peptide intravitreal), 40.40±31.34 ×10^5 cells/ml; in data set [2] (setting [8]), 37.35±21.44 ×10^5 cells/ml. In addition, the “TNF-α in cell supernatant compared with LPS group” value in data set [3] (setting [9]) is “no significant difference”. The “concentration of TNF-α in cell supernatant” value is 737.00 ± 155.56 pg/mL in data set [3] (setting [10]) and 718.00 ± 79.19 pg/mL in data set [3] (setting [11]). Further, the “IL-6 in cell supernatant compared with LPS group” value in data set [4] (setting [9]) was “no significant difference”. For the same molecule, the “concentration of IL-6 in cell supernatant” value was 1385.00 ± 101.54 pg/mL in data set [4] (setting [10]) and 1355.00 ± 134.35 pg/mL in data set [4] (setting [11]). The viability at 24 h, 0.1 µM in data set [5] (0.1 μM) came to 96.9 ± 3.64%. Also, the viability at 24 h, 1 µM in data set [5] (1 μM) was 100 ± 2.67%. Moreover, in data set [5] (10 μM), the viability at 24 h, 10 µM turned out to be 98.3 ± 3.91%. Also, the viability at 24 h, 100 µM in data set [5] (100 μM) is 101 ± 4%. For the same molecule, in data set [5] (1 mM), the viability at 24 h, 1000 µM turned out to be 95.8 ± 4.92%. Moreover, in the data set on RAW264.7 cells, the “toxic effects on cells” value is on record as “no significant toxic effects”. Besides, the water solubility result in data set [6] was “good water solubility”.

With GPERWRGPNGE [H-GP, reference compound], the EIU clinical score in data set [1] (setting [7]) is 3.32±0.61. In addition, in data set [2] (setting [8]), the “count of inflammatory cells in aqueous humor” value is 134.66±98.23 ×10^5 cells/ml. Also, in data set [3] (100 μM peptide, p>0.05), the “TNF-α in cell supernatant compared with LPS group” value is “no significant difference”. Further, the “IL-6 in cell supernatant compared with LPS group” value in data set [4] (100 μM peptide, p>0.05) is on record as “no significant difference”.

For “KQPRGEEGGPW [Derived polypeptide 2, polypeptide derived from H-RN]”, in data set [3], the “TNF-α” value is 701.63 pg/mL. Further, the “IL-6” value in data set [4] turned out to be 1356.46 pg/mL.

As for “NPRGEEGGP [Derived polypeptide 5, polypeptide derived from H-RN]”, in data set [3], the “TNF-α” value amounted to 745.70 pg/mL. Moreover, the “IL-6” value in data set [4] turned out to be 1395.34 pg/mL.

Turning to “QNPRGDEPGPW [Derived polypeptide 4, polypeptide derived from H-RN]”, the “TNF-α” value in data set [3] is 765.92 pg/mL. Further, the “IL-6” value in data set [4] was found to be 1411.87 pg/mL.

For “RNPKGEEGGPW [Derived polypeptide 1, polypeptide derived from H-RN]”, the “TNF-α” value in data set [3] is 724.98 pg/mL. In addition, the “IL-6” value in data set [4] was 1365.29 pg/mL.

In the case of “RNPRGEEGGPWCF [Derived polypeptide 6, polypeptide derived from H-RN]”, the “TNF-α” value in data set [3] came to 696.77 pg/mL. The “IL-6” value in data set [4] came to 1369.41 pg/mL.

Regarding “RNPRPEEGGAY [Derived polypeptide 3, polypeptide derived from H-RN]”, the “TNF-α” value in data set [3] was determined as 792.31 pg/mL. Besides, in data set [4], the “IL-6” value was determined as 1402.54 pg/mL.
